Assay results taken from patent US4251516A, “2-Deoxy-3-O-Demethylfortimicins” (Abbott Laboratories, priority 1979, dated 1981).
Counter-ions that a name gives are not always drawn. Like-named read-outs stand apart in the source and are kept apart here.

Assays:
Assay in all cases: two-fold agar dilution MIC, Mueller-Hinton agar
Assay type in all cases: cell-based
[1] = system: Enterobacter aerogenes 13048; settings: read-out: Minimum Inhibitory Concentration
Protocol: (§1) The in vitro antibiotic activities are determined by a two-fold agar dilution method using Mueller-Hinton agar, 10 ml per Petri dish. The agar is inoculated with one loopful (0.001 ml loop) of a 1:10 dilution of a 24 hour broth culture of the indicated test organism and incubated at 37° C. for 24 hours. Appropriate fortimicins are used as control antibiotics. The activities, listed in the following Table I, minimum inhibitory concentrations(MIC) are expressed in mcg/ml.

Serratia marcescens 4003 = settings: read-out: Minimum Inhibitory Concentration
Protocol: as §1

[2] = system: Pseudomonas aeruginosa 209; settings: read-out: Minimum Inhibitory Concentration
Protocol: as §1

[3] = system: Proteus mirabilis Fin. #9; settings: read-out: Minimum Inhibitory Concentration
Protocol: as §1

Shigella sonnei 9290 = settings: 37° C., 24 hours, read-out: Minimum Inhibitory Concentration
Protocol: as §1

[4] = system: Pseudomonas aeruginosa KY 8512; settings: read-out: Minimum Inhibitory Concentration
Protocol: as §1

[5] = system: Salmonella typhimurium Ed #9; settings: Salmonella enterica, read-out: Minimum Inhibitory Concentration
Protocol: as §1

[6] = system: Pseudomonas aeruginosa KY 8516; settings: read-out: Minimum Inhibitory Concentration
Protocol: as §1

[7] = system: Pseudomonas aeruginosa BMH #10; settings: read-out: Minimum Inhibitory Concentration
Protocol: as §1

[8] = system: Klebsiella pneumoniae 10031; settings: read-out: Minimum Inhibitory Concentration
Protocol: as §1

Proteus vulgaris JJ = settings: read-out: Minimum Inhibitory Concentration
Protocol: as §1

[9] = system: Escherichia coli BL 3676(Res); settings: read-out: Minimum Inhibitory Concentration
Protocol: as §1

Escherichia coli Juhl = settings: read-out: Minimum Inhibitory Concentration
Protocol: as §1

[10] = system: Streptoccocus faecalis 10541; settings: read-out: Minimum Inhibitory Concentration
Protocol: as §1

Providencia 1577 = settings: read-out: Minimum Inhibitory Concentration
Protocol: as §1

[11] = system: Pseudomonas aeruginosa 27853; settings: read-out: Minimum Inhibitory Concentration
Protocol: as §1

[12] = system: Staphyloccocus aureus Smith; settings: Staphylococcus aureus, read-out: Minimum Inhibitory Concentration
Protocol: as §1

[13] = Klebsiella aerogenes, Enterobacter aerogenes 13048, agar dilution, 37° C., 24 hours
[14] = Serratia marcescens 4003, agar dilution, 37° C., 24 hours
[15] = Pseudomonas aeruginosa 209, agar dilution, 37° C., 24 hours
[16] = Proteus mirabilis Fin. #9, agar dilution, 37° C., 24 hours
[17] = Pseudomonas aeruginosa, KY8512, 24 h
[18] = Salmonella typhimurium Ed #9, agar dilution, 37° C., 24 hours
[19] = KY8516, Pseudomonas aeruginosa KY 8516, agar dilution, 37° C., 24 hours
[20] = Pseudomonas aeruginosa BMH #10, agar dilution, 37° C., 24 hours
[21] = Klebsiella pneumoniae 10031, agar dilution, 37° C., 24 hours
[22] = Proteus vulgaris JJ, agar dilution, 37° C., 24 hours
[23] = Escherichia coli BL 3676(Res), agar dilution, 37° C., 24 hours
[24] = Escherichia coli Juhl, agar dilution, 37° C., 24 hours
[25] = Streptoccocus faecalis 10541, agar dilution, 37° C., 24 hours
[26] = Providencia 1577, agar dilution, 37° C., 24 hours
[27] = Pseudomonas aeruginosa, 27853, 24 h
[28] = Staphyloccocus aureus Smith, agar dilution, 37° C., 24 hours
[29] = KY8512, Pseudomonas aeruginosa KY 8512, agar dilution, 37° C., 24 hours

| SMILES | MIC [1, 13] [µg/mL] | MIC (Serratia marcescens 4003; [14]) [µg/mL] | MIC [2, 15] [µg/mL] | MIC [3, 16] [µg/mL] | MIC (Shigella sonnei 9290) [µg/mL] | MIC [4, 17] [µg/mL] | MIC [5, 18] [µg/mL] | MIC [6, 19] [µg/mL] | MIC [7, 20] [µg/mL] | MIC [8, 21] [µg/mL] | MIC (Proteus vulgaris JJ; [22]) [µg/mL] | MIC [9, 23] [µg/mL] | MIC (Escherichia coli Juhl; [24]) [µg/mL] | MIC [10, 25] [µg/mL] | MIC (Providencia 1577; [26]) [µg/mL] | MIC [11, 27] [µg/mL] | MIC [12, 28] [µg/mL] | MIC ([9]; Escherichia coli, 24 h) [µg/mL] | MIC [4, 29] [µg/mL] | further results |
| --- | --- | --- | --- | --- | --- | --- | --- | --- | --- | --- | --- | --- | --- | --- | --- | --- | --- | --- | --- | --- |
| COC1CC(N)C(OC2OC(C(C)N)CCC2N)C(O)C1N(C)C(=O)CN (stereo not shown) [2-Deoxyfortimicin A . 4 HCl, 2-Deoxyfortimicin A tetrahydrochloride] | 3.1 | 3.1 | 100 | 6.2 | 12.5 | 12.5 | 1.56 | 50 | 0.78 | 1.56 | 3.1 | 25 | 6.2 | 50 | 3.1 | 12.5 | 0.78 | – | – | – |
| COC1C(O)C(N)C(OC2OC(C(C)N)CCC2N)C(O)C1N(C)C(=O)CN (stereo not shown) [Fortimicin A . 4HCl, fortimicin A tetrahydrochloride] | – | – | – | – | 12.5 | 12.5 | – | – | – | – | – | – | – | – | – | 12.5 | – | 25 | – | MIC ([1]; Klebsiella aerogenes, 13048, 24 h): 3.1 µg/mL; MIC (Serratia marcescens 4003; Serratia marcescens, 4003, 24 h): 3.1 µg/mL; MIC ([2]; Pseudomonas aeruginosa, 209, 24 h): 100 µg/mL; MIC ([3]; Proteus mirabilis, 24 h): 6.2 µg/mL; MIC ([5]; TYPHIMURIUM, 24 h): 1.56 µg/mL; MIC ([6]; Pseudomonas aeruginosa, KY8516, 24 h): 100 µg/mL; MIC ([7]; Pseudomonas aeruginosa, 24 h): 0.78 µg/mL; MIC ([8]; Klebsiella pneumoniae, 10031, 24 h): 3.1 µg/mL; MIC (Proteus vulgaris JJ; Proteus vulgaris, 24 h): 3.1 µg/mL; MIC (Escherichia coli Juhl; Escherichia coli, 24 h): 6.2 µg/mL; MIC ([10]; 24 h): 50 µg/mL; MIC (Providencia 1577; Providencia, 1577, 24 h): 6.2 µg/mL; MIC ([12]; 24 h): 0.78 µg/mL |
| CC(N)C1CCC(N)C(OC2C(N)CC(O)C(N(C)C(=O)CN)C2O)O1 (stereo not shown) [2-Deoxy-3-O-demethylfortimicin A . 4HCl, 2-Deoxy-3-O-Demethylfortimicin A tetrahydrochloride] | 3.1 | 3.1 | 100 | 3.1 | 12.5 | – | 1.56 | 100 | 0.78 | 3.1 | 3.1 | – | 6.2 | 50 | 1.56 | – | 0.39 | 12.5 | 3.1 | MIC ([11]; Pseudomonas aeruginosa 27853, agar dilution, 37° C., 24 hours): 6.2 µg/mL |
| CC(N)C1CCC(N)C(OC2C(N)C(O)C(O)C(N(C)C(=O)CN)C2O)O1 (stereo not shown) [3-O-Demethylfortimicin A . 4HCl, 3-O-demethylfortimicin A tetrahydrochloride] | 2.1 | 4.3 | 69 | 2.1 | 4.3 | – | 1.1 | 69 | 0.27 | 1.1 | 2.1 | 8.6 | 2.1 | 17 | 1.1 | – | 0.54 | – | 2.1 | – |
